Marks after values point to notes of the source that are not given here.
Key:
Experiment in all cases: Peptide mismatched library: peptide-loaded T2 cells co-cultured with TCR-transduced CD8+ T cells, IFN-γ-ELISA
Format in all cases: cell-based
[1] = test system: WT NY-ESO_PD1-41 BB TCR ("SWAT"); settings: for IFN-γ [pg/ml production] MIT 045 SWAT: donor MIT045; for IFN-γ [pg/ml production] MIT 045 SWAT / IFN-γ [pg/ml production] MIT038 SWAT: CD8^+ T cells transduced with WT NY-ESO_PD1-41 BB TCR (SWAT), mismatch peptide loaded on T2 cells, IFNg-ELISA; for IFN-γ [pg/ml production] MIT038 SWAT: donor MIT038
Excerpt: (§1) The aim was to further compare the WT NY-ESO-1 with two UNI-TABS NY-ESO-TCRs (Position A199 in loop 1 and A245 in loop 2) in combination with PD1_41 BB regarding allogeneic HLA cross-recognition and HLA fine typing.
(§2) To test a peptide mismatched library, 336 different mismatched peptides, differing from 1-4 amino acids from the wild-type peptide recognized by the WT TCR were loaded on T2 cells and co-cultured with CD8^+ T cell transduced with either wt NY-ESO_PD1-41 BB TCR, NY-ESO-UniTABS-A199_PD1-41 BB TCR or NY-ESO-UniTABS-A245_PD1-41 BB TCR. The culture supernatant was collected, and an IFN-γ-ELISA performed.
(§3) The sequences and the numbers of the respective mismatch peptides are listed. The cells contain the values of IFN-γ [pg/ml production]. BetaA199: UniTAB epitope set forth in SEQ ID NO: 47 inserted in loop1 at position A199 flanked by GSG linker sequences, BetaA245: UniTAB epitope set forth in SEQ ID NO: 47 inserted in loop 2 at position A245 flanked by GSG linker sequences. Table 2: Mismatched peptides recognized by NY-ESO WT and NY-ESO variants

[2] = test system: NY-ESO-A199_PD1-41 BB TCR (UniTAB1); settings: CD8^+ T cells transduced with NY-ESO-A199_PD1-41 BB TCR (UniTAB1), mismatch peptide loaded on T2 cells, IFNg-ELISA; for IFN-γ [pg/ml production] MIT038 UniTABs-A199: donor MIT038
Excerpt: as §1, §2, §3

[3] = test system: NY-ESO-A245_PD1-41 BB TCR (UniTAB2); settings: donor MIT045; CD8^+ T cells transduced with NY-ESO-A245_PD1-41 BB TCR (UniTAB2); mismatch peptide loaded on T2 cells; IFNg-ELISA
Excerpt: as §1, §2, §3

ICLQWITQC [compound 8]
recognition of mismatched peptide (IFN-γ response) ([1]; WT TCR-PD1-41BB transduced T cells, two donors): only recognized by WT TCR transduced T cells of one donor
IFN-γ [pg/ml production] MIT 045 SWAT [1]: 24.7**** pg/ml

NLLFWICGC [compound 221]
IFN-γ [pg/ml production] MIT038 UniTABs-A199 [2]: 900.2* pg/ml
IFN-γ [pg/ml production] MIT 045 UniTABs-A199 ([2]; donor MIT045): 889.3* pg/ml
IFN-γ [pg/ml production] MIT 045 UniTABs-A245 [3]: 0.0* pg/ml
IFN-γ [pg/ml production] MIT038 SWAT [1]: 788.9* pg/ml
IFN-γ [pg/ml production] MIT 045 SWAT [1]: 100.6* pg/ml

SLLCYIKHC [compound 239]
IFN-γ [pg/ml production] MIT038 UniTABs-A199 [2]: 312.2** pg/ml
IFN-γ [pg/ml production] MIT038 SWAT [1]: 228.6** pg/ml
IFN-γ [pg/ml production] MIT 045 SWAT [1]: 32.1** pg/ml
